≈ marks a conversion by molar mass, not a printed value.
Key:
Candida albicans = assay: Antimycotic in-vitro activity, serial dilution test (MIC); assay type: cell-based; settings: Fleischextrakt-Traubenzucker-Bouillon, 28-37 °C, 24-96 h, inoculum 5 x 10^3 to 10^4 germs/ml, read-out: MHK-Werte in γ/ml Nährmedium, Candida albicans
Method: (§1) Die in-vitro-Prüfungen wurden im Reihenverdünnungstest mit Keiminokula von durchschnittlich 5 x 10³ bis 10⁴ Keimen/ml Substrat durchgeführt. Als Nähmedium dienten • a) für Dermatophyten und Schimmelpilze: Sabouraud's milieu d'epreuve • b) für Hefen: Fleischextrakt-Traubenzucker-Bouillon.
(§2) Die Bebrütungstemperatur betrug 28 °C bis 37 °C, die Bebrütungsdauer lag bei 24 bis 96 Stunden bei Hefen und 96 Stunden bei Dermatophyten und Schimmelpilzen.

Microsporum canis = assay: as above; assay type: cell-based; settings: Sabouraud's milieu d'epreuve, 28-37 °C, 96 h, inoculum 5 x 10^3 to 10^4 germs/ml, read-out: MHK-Werte in γ/ml Nährmedium, Microsporum canis
Method: as §1, §2

Aspergillus fumigatus = assay: as above; assay type: cell-based; settings: Sabouraud's milieu d'epreuve, 28-37 °C, 96 h, inoculum 5 x 10^3 to 10^4 germs/ml, read-out: MHK-Werte in γ/ml Nährmedium, Aspergillus fumigatus
Method: as §1, §2

Trichophyton mentagr. = assay: as above; assay type: cell-based; settings: Sabouraud's milieu d'epreuve, 28-37 °C, 96 h, inoculum 5 x 10^3 to 10^4 germs/ml, read-out: MHK-Werte in γ/ml Nährmedium, Trichophyton mentagr.
Method: as §1, §2

Torulopsis glabrata = assay: as above; assay type: cell-based; settings: Nakaseomyces glabratus; Fleischextrakt-Traubenzucker-Bouillon; 28-37 °C, 24-96 h; inoculum 5 x 10^3 to 10^4 germs/ml; read-out: MHK-Werte in γ/ml Nährmedium, Torulopsis glabrata
Method: as §1, §2

[1] = tested on: Trichophyton mentagrophytes; assay: In-vivo activity (local) in experimental guinea pig trichophytosis; set-up: species or system Meerschweinchen der Rasse Pirbright-white; settings: for Wirkung (Infektionszeichen): 0,1 % solution in Dimethylsulfoxid : Glycerin = 1 : 4, local, once daily from day 3 p.i.; for Wirkung (in words): guinea pig trichophytosis, local, 0,1 % solution, statement in words
Description: Weiße Meerschweinchen der Rasse Pirbright-white wurden auf dem geschorenen, nicht skarifizierten Rücken mit einer Mikro- und Makrokoniden-Suspension von Trichophyton mentagrophytes infiziert.
Die infizierten Tiere wurden beginnend mit dem 3.Tag p.i. 1 x täglich mit einer 0,1 %igen Lösung der erdingungsgemäßen Präparate (in Dimethylsulfoxid : Glycerin = 1 : 4) lokal behandelt.
Bei unbehandelten Tieren entwickelte sich innerhalb von 12 Tagen p.i. das Typische Bild einer Dermatophytose mit Rötung, Schuppung und Haarausfall bis zum totalen Integument-Defekt an der Infektionsstelle.

Candida-Zellen = assay: Antimycotic in-vivo activity (oral) in mouse candidosis; set-up: species or system Mäuse vom Typ SPF-CF1; settings: for Wirkung (Überlebende am 6. Tag p.i.): mice infected i.v. with Candida, 25-100 mg/kg oral, 1 h before and 7 h after infection; for Wirkung compared with (A) and (B): mouse candidosis, oral, statement in words
Method: Mäuse vom Typ SPF-CF₁ wurden intravenös mit 1 - 2 x 10⁶ logarithmisch wachsenden Candida-Zellen, die in physiologischer Kochsalzlösung suspendiert werden, infiziert. Eine Stunde vor und sieben Stunden nach der Infektion werden die Tiere mit jeweils 25 - 100 mg/kg Körpergewicht der Präparate oral behandelt.
Unbehandelte Tiere starben 3 bis 6 Tage post infektionem. Die Überlebensrate am 6.Tag post infektionem betrug bei unbehandelten Kontrolltieren etwa 5 %.

| SMILES | MIC (Candida albicans) [µg/mL] | MIC (Microsporum canis) [µg/mL] | MIC (Aspergillus fumigatus) [µg/mL] | MIC (Trichophyton mentagr.) [µg/mL] | MIC (Torulopsis glabrata) [µg/mL] | Wirkung (Infektionszeichen) [1] | Wirkung (in words) [1] | Wirkung (Überlebende am 6. Tag p.i.) (Candida-Zellen) | Wirkung compared with (A) and (B) (Candida-Zellen) |
| --- | --- | --- | --- | --- | --- | --- | --- | --- | --- |
| CCCCSCC(O)(Cn1cncn1)C(C)(C)Cc1cccc(C)c1 (stereo not drawn) [I-66] | < 1 | 4 (≈ 11.1 µM) | 4 (≈ 11.1 µM) | 4 (≈ 11.1 µM) | 8 (≈ 22.1 µM) | – | – | – | – |
| CCSCC(O)(Cn1cncn1)C(C)(C)Cc1ccc(C)cc1 (stereo not drawn) [I-50] | < 1 | < 1 | < 1 | < 1 | 4 (≈ 12 µM) | – | – | – | – |
| CCCCSCC(O)(Cn1cncn1)C(C)(C)Cc1ccc(SC(F)(F)F)cc1 (stereo not drawn) [I-61] | 8 (≈ 17.9 µM) | 2 (≈ 4.47 µM) | 2 (≈ 4.47 µM) | < 1 | 32 (≈ 71.5 µM) | – | – | – | – |
| CC(C)(Cc1ccc(F)cc1)C(O)(CSCc1ccc(Cl)cc1)Cn1cncn1 (stereo not drawn) [I-58] | 2 (≈ 4.61 µM) | 4 (≈ 9.22 µM) | 8 (≈ 18.4 µM) | < 1 | < 1 | – | – | – | – |
| CC(C)(Cc1ccc(SC(F)(F)F)cc1)C(O)(CS)Cn1cncn1 (stereo not drawn) [I-63] | 2 (≈ 5.11 µM) | 2 (≈ 5.11 µM) | < 1 | < 1 | 16 (≈ 40.9 µM) | – | – | – | – |
| CC(C)SCC(O)(Cn1cncn1)C(C)(C)Cc1ccc(Br)cc1 (stereo not drawn) [I-40] | < 1 | 2 (≈ 4.85 µM) | < 1 | < 1 | < 1 | ++++ (gute Wirkung = geringe Rötung, vereinzelt Schuppen) | gute | +++ (= Wirkung = 60 % Überlebende am 6.Tag.p.i.) | bessere Wirkung |
| CC(C)SCC(O)(Cn1cncn1)C(C)(C)Cc1ccc(Cl)cc1 (stereo not drawn) [I-46] | < 1 | 4 (≈ 10.9 µM) | < 1 | < 1 | < 1 | – | – | ++ (= schwache Wirkung = 40 % Überlebende am 6.Tag.p.i.) | bessere Wirkung |
| CCSCC(O)(Cn1cncn1)C(C)(C)Cc1cccc(C)c1 (stereo not drawn) [I-64] | < 1 | 2 (≈ 6 µM) | 4 (≈ 12 µM) | 2 (≈ 6 µM) | 4 (≈ 12 µM) | – | – | – | – |
| CCCSCC(O)(Cn1cncn1)C(C)(C)COc1ccc(Cl)c(C)c1 (stereo not drawn) [I-70] | < 1 | 2 (≈ 5.03 µM) | 8 (≈ 20.1 µM) | < 1 | 8 (≈ 20.1 µM) | – | – | – | – |
| CCSCC(O)(Cn1cncn1)C(C)(C)Cc1ccccc1C (stereo not drawn) [I-67] | < 1 | 2 (≈ 6 µM) | 4 (≈ 12 µM) | < 1 | 2 (≈ 6 µM) | – | – | – | – |
| CCSCC(O)(Cn1cncn1)C(C)(C)Cc1ccc(OC(F)(F)F)cc1 (stereo not drawn) [I-52] | < 1 | 2 (≈ 4.96 µM) | < 1 | < 1 | 16 (≈ 39.7 µM) | +++++ | sehr gute Wirkung | ++++ (= gute Wirkung = 80 % Überlebende am 6.Tag.p.i.) | bessere Wirkung |
| CCCSCC(O)(Cn1cncn1)C(C)(C)Cc1ccc(C)cc1 (stereo not drawn) [I-49] | < 1 | 2 (≈ 5.75 µM) | < 1 | < 1 | 2 (≈ 5.75 µM) | – | – | – | – |
| CCSCC(O)(Cn1cncn1)C(C)(C)COc1ccc(Cl)cc1 (stereo not drawn) [I-68] | < 1 | < 1 | < 1 | < 1 | 4 (≈ 10.8 µM) | – | – | – | – |
| C=CCSCC(O)(Cn1cncn1)C(C)(C)Cc1ccc(Cl)cc1 (stereo not drawn) [I-44] | < 1 | < 1 | < 1 | < 1 | 4 (≈ 10.9 µM) | – | – | – | – |
| CSCC(O)(Cn1cncn1)C(C)(C)Cc1ccc(Cl)cc1 (stereo not drawn) [I-42] | < 1 | < 1 | < 1 | < 1 | 8 (≈ 23.5 µM) | – | – | – | – |
| CC(C)CSCC(O)(Cn1cncn1)C(C)(C)Cc1ccc(Cl)cc1 (stereo not drawn) [I-43] | < 1 | < 1 | < 1 | < 1 | 4 (≈ 10.5 µM) | – | – | – | – |
| CC(C)(Oc1ccc(-c2ccccc2)cc1)C(O)(CSc1ccc(Cl)cc1)Cn1cncn1 (stereo not drawn) [I-93] | – | – | – | – | – | – | – | +++++ (= sehr gute Wirkung = 90 % Überlebende am 6.Tag.p.i.) | bessere Wirkung |
| CCSCC(O)(Cn1cncn1)C(C)(C)COc1ccc(Cl)c(C)c1 (stereo not drawn) [I-69] | < 1 | < 1 | 2 (≈ 5.21 µM) | < 1 | 16 (≈ 41.7 µM) | – | – | – | – |
| CCSCC(O)(Cn1cncn1)C(C)(C)Cc1ccc(Cl)cc1 (stereo not drawn) [I-45] | 2 (≈ 5.65 µM) | < 1 | < 1 | < 1 | 2 (≈ 5.65 µM) | – | – | – | – |
| CCCCSCC(O)(Cn1cncn1)C(C)(C)Cc1ccc(Cl)cc1 (stereo not drawn) [I-47] | 2 (≈ 5.24 µM) | 4 (≈ 10.5 µM) | < 1 | < 1 | 4 (≈ 10.5 µM) | – | – | – | – |
| Cc1cccc(CC(C)(C)C(O)(CSC(C)C)Cn2cncn2)c1 (stereo not drawn) [I-65] | 2 (≈ 5.75 µM) | 4 (≈ 11.5 µM) | 4 (≈ 11.5 µM) | 2 (≈ 5.75 µM) | 16 (≈ 46 µM) | – | – | – | – |
| CCCSCC(O)(Cn1cncn1)C(C)(C)Cc1ccc(F)cc1 (stereo not drawn) [I-53] | < 1 | 2 (≈ 5.69 µM) | < 1 | < 1 | 2 (≈ 5.69 µM) | – | – | – | – |
| CC(C)SCC(O)(Cn1cncn1)C(C)(C)Cc1ccc(F)cc1 (stereo not drawn) [I-55] | 2 (≈ 5.69 µM) | 2 (≈ 5.69 µM) | 2 (≈ 5.69 µM) | < 1 | 2 (≈ 5.69 µM) | – | – | – | – |
| CCCSCC(O)(Cn1cncn1)C(C)(C)Cc1ccc(SC(F)(F)F)cc1 (stereo not drawn) [I-60] | 2 (≈ 4.61 µM) | 2 (≈ 4.61 µM) | < 1 | < 1 | 4 (≈ 9.23 µM) | – | – | – | – |
| CCCSCC(O)(Cn1cncn1)C(C)(C)Cc1ccc(OC(F)(F)F)cc1 (stereo not drawn) [I-51] | < 1 | < 1 | < 1 | < 1 | < 1 | – | – | ++ (= schwache Wirkung = 40 % Überlebende am 6.Tag.p.i.) | bessere Wirkung |
| CC(C)SCC(O)(Cn1cncn1)C(C)(C)Cc1ccc(SC(F)(F)F)cc1 (stereo not drawn) [I-62] | < 1 | < 1 | 2 (≈ 4.61 µM) | < 1 | < 1 | – | – | ++ (= schwache Wirkung = 40 % Überlebende am 6.Tag.p.i.) | bessere Wirkung |
| CCSCC(O)(Cn1cncn1)C(C)(C)Cc1ccc(F)cc1 (stereo not drawn) [I-2] | < 1 | 2 (≈ 5.93 µM) | 2 (≈ 5.93 µM) | < 1 | 4 (≈ 11.9 µM) | – | – | – | – |
| Cc1cc(Cl)ccc1OC(C)(C)C(O)(CSc1ccc(Cl)cc1)Cn1cncn1 (stereo not drawn) [I-94] | – | – | – | – | – | – | – | ++++ (= gute Wirkung = 80 % Überlebende am 6.Tag.p.i.) | bessere Wirkung |
| CCCSCC(O)(Cn1cncn1)C(C)(C)Cc1ccc(Cl)cc1 (stereo not drawn) [I-41] | < 1 | < 1 | < 1 | < 1 | 4 (≈ 10.9 µM) | – | – | – | – |
